Laboratory results reported in patent publication US7767671B2, “3-Quinolinecarbonitrile protein kinase inhibitors” (Wyeth, priority 2004, dated 2010).

Tests used:
[1] = test system: BxPC3; assay: Cell based screen for inhibitors of Raf and/or Mek kinase (SRB), BxPC3; conditions: Homo sapiens, BXPC-3, BxPC3 cells, (a)/(b) = average of two/three runs
Description: [The procedure below names another cell line; the source lists this cell line under the same test.] (§1) Cell Based Screen for Inhibitors of Raf and/or Mek Kinase. Materials
(§2) Cells are plated at 2000 cells per well for cell line LoVo and 1500 cells for cell line CaCo-2 in 96 well plates. Cells are plated in media (200 μl) and allowed to adhere overnight at 37° C. At 24 hours post plating, compounds are added directly at a volume of 0.5 μl. For the qualitative screen (compounds screened at 25 μM) compound is added directly to cells. For the quantitative screen, compound is first diluted in DMSO to generate concentrations of compound or reference standard of: 1, 5, 10 and 25 μM. It is advisable to make the dilutions in an identical 96 well plate so that compounds can be added using a multichannel micropipettor set at 0.5 μl. The cells are then incubated for four days after which the media is removed using a 12 well manifold by first tipping the plate forward at a 45 degree angle and then inserting the manifold in an upright orientation to prevent the tips of the manifold from disturbing cells at the bottom of the plate. 200 μl of normal saline is then added to each well using an 8 well multichannel pipettor, followed by the careful addition of 50 μl of 50% TCA. The plates are then incubated for 2 hours at 4° C., after which the supernatant is removed using the same technique as above and the plated cells are washed twice with 200 μl water. The plates are then air dried and 50 μl of SRB stock solution is carefully added so that the entire bottom of each well is covered. This again can be done using an 8 well multichannel pipettor. The SRB is incubated with fixed cells for 15 minutes at room temperature after which the SRB is removed with the manifold as described above and the plates washed twice with 350 μl of 1% acetic acid per well each time. The plates are then air dried after which the bound SRB is released from protein by the addition of 200 μl of Tris base. Resolubilizing the SRB is aided by placing the plates on a rotator for 15-30 minutes. The absorbance of each well is determined at 550 or 562 nm using a microtiter plate reader.
(§3) Each compound or dilution thereof is performed in triplicate. Outliers are identified by visual inspection of the data. Each plate should have a “0” control (vehicle only).
(§4) Quantitative Assay: A standard curve is constructed by plotting the concentration of compound against the average absorbance calculated at that concentration. A curve is plotted and the concentration at which the curve passes through the 50% the absorbance mark seen in the “0” control well is the IC50 calculated for that compound. Multiple entries for a given compound indicate that it is tested multiple times.

[2] = molecular target: T1, Raf and/or Mek kinase (human c-Raf, GST-MEK1) (Homo sapiens, UniProt P04049+Q02750); assay: Raf/Mek kinase cascade assay; assay type: biochemical; conditions: c-Raf dependent activation of GST-MEK and GST-MAPK, phospho-MAPK ELISA; (a)/(b)/(c) = average of two/three/four runs
T1 construct: Sf9 insect cell lysate containing full length 6his-tagged recombinant human c-Raf; 6His; host or cells: Sf9 insect cells (c-Raf, used as lysate); E. coli (MEK1-GST, GST-MAPK)
T1 sequence (P04049 whole entry): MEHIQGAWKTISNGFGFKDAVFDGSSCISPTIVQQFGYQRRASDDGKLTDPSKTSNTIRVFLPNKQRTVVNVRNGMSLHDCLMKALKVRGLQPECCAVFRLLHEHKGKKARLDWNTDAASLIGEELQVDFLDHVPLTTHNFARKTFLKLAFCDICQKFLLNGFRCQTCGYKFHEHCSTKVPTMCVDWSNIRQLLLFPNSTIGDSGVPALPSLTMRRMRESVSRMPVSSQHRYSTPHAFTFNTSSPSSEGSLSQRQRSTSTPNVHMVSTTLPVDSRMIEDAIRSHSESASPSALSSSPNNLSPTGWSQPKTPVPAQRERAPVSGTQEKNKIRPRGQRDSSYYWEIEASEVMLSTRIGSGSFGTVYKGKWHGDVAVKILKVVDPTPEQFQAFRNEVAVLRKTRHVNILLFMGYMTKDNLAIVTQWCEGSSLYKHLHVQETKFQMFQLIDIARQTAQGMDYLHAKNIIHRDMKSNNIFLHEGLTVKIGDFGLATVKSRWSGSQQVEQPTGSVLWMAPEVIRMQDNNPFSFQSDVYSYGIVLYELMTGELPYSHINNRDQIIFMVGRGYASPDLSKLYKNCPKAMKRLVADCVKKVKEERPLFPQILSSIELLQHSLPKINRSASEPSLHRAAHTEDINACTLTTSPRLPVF
T1 sequence (Q02750 whole entry): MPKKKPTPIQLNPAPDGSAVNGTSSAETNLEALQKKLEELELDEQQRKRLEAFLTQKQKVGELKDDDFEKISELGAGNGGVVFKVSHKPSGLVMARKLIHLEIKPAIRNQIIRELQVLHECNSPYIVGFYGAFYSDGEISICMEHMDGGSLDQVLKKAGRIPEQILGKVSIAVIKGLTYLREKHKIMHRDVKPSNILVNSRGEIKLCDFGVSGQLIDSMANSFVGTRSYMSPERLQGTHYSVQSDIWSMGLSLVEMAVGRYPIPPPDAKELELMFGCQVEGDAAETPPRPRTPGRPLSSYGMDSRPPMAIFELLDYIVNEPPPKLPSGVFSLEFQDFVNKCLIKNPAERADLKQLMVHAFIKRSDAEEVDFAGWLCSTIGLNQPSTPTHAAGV
Description: Raf/Mek Kinase Cascade Assay Procedure
(Specific Activity: ˜200 U/ml). Human Non-active Mek-1-GST and human GST-MAP kinase (recombinant proteins produced in E. coli).
Stock Solutions Raf/Mek Cascade Assay:
• 1. Assay Dilution Buffer (ADB): 20 mM MOPS, pH 7.2, 25 mM β-glycerol phosphate, 5 mM EGTA, 1 mM sodium orthovanadate, 1 mM dithiothreitol; • 2. Magnesium/ATP Cocktail: 500 μM cold ATP and 75 mM magnesium chloride in ADB; • 3. Active Kinase: Human Active c-Raf: Use at 0.4 U per assay point; • 4. Non-active GST-MEK1: Use at 0.1 μg per assay point; and • 5. Non-active GST-p42 MAP Kinase: Use at 1.0 μg per assay point. Stock Solutions ELISA: • 1. TBST-Tris (50 mM, pH 7.5), NaCl (150 mM), Tween-20 (0.05%); • 2. Superblock (Pierce); • 3. Anti-GST Ab (Pharmacia); • 4. Anti-Phospho MAPK (Sigma); and • 5. Anti-Mouse Ab/Europium conjugate (Wallac). Assay Procedure: First Stage: c-Raf Dependent Activation of GST-MEK and GST-MAPK • 1. Add […] of ADB per assay (i.e. per well of a 96 well plate); • 2. Add 10 ml of 0.5 mM cold ATP and 75 mM magnesium chloride in ADB; • 3. Add 2 ml of c-Raf (0.4 U/assay), in conjunction with 1.6 ml non-active MEK1 (0.4 […]/assay); • 4. Add 4 ml of non-active GST-p42 MAP Kinase (1.0 mg/assay); • 5. Incubate for 60 minutes at 30° C. in a shaking incubator; • 6. Transfer this mixture to an anti-GST Ab coated 96 well plate (Nunc Immunosorb plates coated o/n with a-GST, then blocked with Pierce Superblock); • 7. Incubate for 60 minutes at 30° C. in a shaking incubator; • 8. Wash 3× with TBST, add Anti-Phospho MAPK (Sigma) (1:3000); • 9. Incubate for 60 minutes at 30° C. in a shaking incubator; • 10. Wash 3× with TBST, add Anti-Mouse Ab/Europium conjugate (Wallac) (1:500); • 11. Incubate for 60 minutes at 30° C. in a shaking incubator; • 12. Wash 3× with TBST, Read plates in Wallac Victor model Plate Reader; and • 13. Collect data analyze in Excel for single point and IC50 determinations.
Single point assay—% inhibition at […] (% Inhibition=1−cpd·treated sample/untreated control). IC50 determinations—done on compounds from single point assays with >80% inhibition. Typically, the Raf/Mek assay is run at compound concentrations from 10 μM to 1 nM in half log dilutions. (% inhibition is determined for each compound concentration). The results obtained measure Raf and/or Mek kinase inhibition, and for representative compounds of this invention are listed in Table 1.

[3] = test system: LoVo; assay: Cell based screen for inhibitors of Raf and/or Mek kinase (SRB), LoVo; set-up: species or system human; conditions: Homo sapiens, 96 h, LoVo cells, four days incubation, (a)/(b)/(c) = average of two/three/five runs
Description: as §1
Cell Lines: Human adenocarcinoma cell line LoVo, known to be growth inhibited by low nM concentrations of a reference standard inhibitor of Ras and human adenocarcinoma cell line CaCo-2, known to be growth resistant to the same reference compound.
Cell Media: RPMI 1640 with 10% Fetal Bovine Serum supplemented with L-glutamine and Penicillin/Streptomycin.
as §2, §3, §4

[4] = test system: Rat2 fibroblasts transformed with v-Src/Hu c-Src fusion gene; assay: Anchorage independent Src-transformed fibroblast proliferation; assay type: cell-based; conditions: Rattus norvegicus, 120 h, suspension growth, MTS on Day 5, read-out: Src TF prolif IC50
Description: Anchorage Independent Src-transformed Fibroblast Proliferation Test Procedure: Rat2 fibroblasts stably transformed with a plasmid containing a CMV promotor controlled v-Src/Hu c-Src fusion gene in which the catalytic domain of human c-Src is inserted in place of the v-Src catalytic domain in the v-Src gene are used for the measurement of src dependent suspension growth. Ultra-low cluster plates (Costar #3474) are seeded with 10,000 cells per well on Day 1.

[5] = molecular target: T2, p60c-src (Homo sapiens, UniProt P12931); assay: Src kinase test procedure (ELISA); assay type: biochemical; conditions: cdc2 substrate peptide, (a) = average of two runs
T2 construct: purchased Upstate Biotechnologies
T2 sequence (P12931 whole entry): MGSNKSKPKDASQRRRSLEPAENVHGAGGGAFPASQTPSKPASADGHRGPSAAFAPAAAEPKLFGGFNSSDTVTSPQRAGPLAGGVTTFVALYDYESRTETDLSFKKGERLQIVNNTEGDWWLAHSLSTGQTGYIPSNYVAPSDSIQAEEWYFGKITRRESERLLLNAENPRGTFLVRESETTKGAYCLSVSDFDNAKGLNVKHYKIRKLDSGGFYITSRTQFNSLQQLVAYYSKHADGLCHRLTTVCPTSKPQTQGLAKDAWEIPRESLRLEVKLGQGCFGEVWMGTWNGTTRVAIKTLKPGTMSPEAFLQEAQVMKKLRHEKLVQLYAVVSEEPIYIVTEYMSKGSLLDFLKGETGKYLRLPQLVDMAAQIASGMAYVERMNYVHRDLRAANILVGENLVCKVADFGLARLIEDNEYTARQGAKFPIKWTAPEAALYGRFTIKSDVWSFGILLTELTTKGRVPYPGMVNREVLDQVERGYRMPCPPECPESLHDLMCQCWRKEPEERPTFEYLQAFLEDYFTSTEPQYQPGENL
Description: Src Kinase Test Procedure
Inhibitors of p60^c-src (partially purified preparation purchased from Upstate Biotechnologies) tyrosine kinase activity are analyzed in an Elisa format. The Boehringer Mannheim Tyrosine Kinase Assay Kit (Catalog number 1-534505) with a cdc2 substrate peptide containing Tyr15 is used for the assay. HRP-conjugated anti-phosphotyrosine is used to detect phosphorylated peptide via a color reaction. Conditions recommended by the manufacturer are employed.
Reaction conditions: Five microliter aliquots of each compound prepared fresh at the time of the assay are added as a solution in 10 mM HEPES pH 7.5, 10% DMSO to the reaction well. Thirty-five microliters of reaction mix containing Src, buffer and peptide/bovine serum albumin mix are added to the compound wells and incubated at 30° C. for 10 minutes (reaction buffer: 50 mM Tris HCl pH 7.5, 10 mM MgCl2, 0.1 mM EGTA, 0.5 mM Na3VO4). The reaction is started by addition of 10 microliters of ATP, incubated at 30° C. for 1 hour, and stopped by addition of 20 microliters of 0.5M EDTA. The reaction mixture with the phosphorylated peptide is then transferred to a streptavidin-coated microtiter plate (provided in the kit) and allowed to bind for 20 minutes. Unbound peptide and reaction mixture is decanted and the plate is washed with PBS six times. Horseradish peroxidase-conjugated phosphotyrosine antibody supplied in the kit is incubated with the plate for one hour, then decanted. The plate is again ished with PBS six times. Substrate (provided in the kit) is added and absorbance at 405 nm is measured.
Activity is determined as % inhibition as calculated by the formula: (1−Abs/Abs(max))×100=% inhibition. Where multiple concentrations of the test agent are used, an IC50 (concentration which gives 50% inhibition) could be determined.

Row | IC50 [1] [nM] | IC50 [2] [nM] | IC50 [3] [nM] | melting point [°C] | IC50 [5] [nM] | Structure (SMILES) | IC50 [4] [nM]
1 | 38 | 293 | 22 | 235 to 237 |  | COc1cc2c(Nc3ccc(Sc4nccn4C)c(Cl)c3)c(C#N)cnc2cc1N1CCC(N2CCN(C)CC2)CC1 [Example 20, 4-({3-Chloro-4-[(1-methyl-1H-imidazole-2-yl)thio]phenyl}amino)-6-methoxy-7-[4-(4-methylpiperazin-1-yl)piperidin-1-yl]quinoline-3-carbonitrile] | 
2 | 300 | 795 | 370 | 203 to 205 |  | COc1cc2c(Nc3ccc(Sc4ccccn4)c(Cl)c3)c(C#N)cnc2cc1N1CCC(N2CCCC2)CC1 [Example 14, 4-[3-Chloro-4-(pyridin-2-ylsulfanyl)-phenylamino]-6-methoxy-7-(4-pyrrolidin-1-yl-piperidin-1-yl)-quinoline-3-carbonitrile] | 
3 | 600 | 1430 | 470 | 182 to 184 |  | COc1cc2c(Nc3ccc(Sc4ccccn4)cc3)c(C#N)cnc2cc1N1CCC(N2CCCC2)CC1 [Example 13, 6-Methoxy-4-[4-(pyridin-2-ylsulfanyl)phenylamino]-7-(4-pyrrolidin-1-yl-piperidin-1-yl)-quinoline-3-carbonitrile] | 
4 | 8 | 2390 | 14 | 245 to 247 |  | CC(=O)N(C(C)=O)c1cc2c(Nc3ccc(Sc4nccn4C)c(Cl)c3)c(C#N)cnc2cc1N1CCC(N2CCCC2)CC1 [Example 28, N-Acetyl-N-[4-[3-chloro-4-(1-methyl-1H-imidazole-2-ylsulfanyl)-phenylamino]-3-cyano-7-(4-pyrrolidin-1-yl-piperidin-1-yl)quinolin-6-yl]acetamide] | 
5 | 360 | 1720 | 261 | 194 to 196 |  | COc1cc2c(Nc3ccc(Oc4cccnc4)cc3)c(C#N)cnc2cc1N1CCC(N2CCCC2)CC1 [Example 15, 6-Methoxy-4-[4-(pyridin-3-yloxy)-phenylamino]-7-(4-pyrrolidin-1-yl-piperidin-1-yl)-quinoline-3-carbonitrile] | 

Second part, the molecule before the results:

Row | Structure (SMILES) | IC50 [1] [nM] | IC50 [2] [nM] | IC50 [3] [nM] | melting point [°C] | IC50 [5] [nM] | IC50 [4] [nM]
6 | COc1cc(Nc2c(C#N)cnc3cc(N4CCC(N5CCCC5)CC4)c(OC)cc23)c(Cl)cc1Cl [Example 31, 4-[(2,4-dichloro-5-methoxyphenyl)amino]-6-methoxy-7-(4-pyrrolidin-1-ylpiperidin-1-yl)quinoline-3-carbonitrile] |  |  |  | 225 to 227 |  | 2400
7 | CCOc1cc2c(Nc3ccc(Sc4nccn4C)c(Cl)c3)c(C#N)cnc2cc1N1CCC(N2CCCC2)CC1 [Example 18, 4-({3-chloro-4-[(1-methyl-1H-imidazole-2-yl)thio]phenyl}amino)-6-ethoxy-7-(4-pyrrolidin-1-ylpiperidin-1-yl)quinoline-3-carbonitrile] | 30 | 75 | 27 | 203 to 207 |  | 
8 | COc1cc2c(Nc3ccc(Sc4nccn4C)c(Cl)c3)c(C#N)cnc2cc1N1CCC(N2CCCC2)CC1 [Example 11, 4-({3-chloro-4-[(1-methyl-1H-imidazole-2-yl)thio]phenyl}amino)-6-methoxy-7-(4-pyrrolidin-1-ylpiperidin-1-yl)quinoline-3-carbonitrile] | 42 | 114 | 29 | 225 to 229 | 281 | 
